These are literature values, as cited in patent US20200016150A1, “TREATMENT OF THE PRURITIC SYMPTOMS OF LIVER DISEASE” (TREVI THERAPEUTICS, INC., priority 2018, published 2020).

By half-life is commonly meant the time needed for the level to fall by half in the phase considered.

The conditions of this series: injectable formulations (i.e., IV or IM or SC).

`Cl.Oc1ccc2c3c1OC1[C@@H](O)CC[C@@]4(O)[C@@H](C2)N(CC2CCC2)CC[C@]314` (stereo partly drawn) [nalbuphine, 17-(cyclobutylmethyl)-4,5α-epoxymorphinan-3, 6α, 14-triol, hydrochloride]: the half-life is 2 to 3 h.
